Calls of active or inactive are those of the source.
Columns and labels:
Format in all cases: functional, organism-based
Staphylococcus aureus [1] = assay: Antimicrobial activity against catheter-associated biofilm of methicillin-resistant Staphylococcus aureus assessed as reduction of CFU
Staphylococcus aureus [2] = assay: Antimicrobial activity against catheter-associated biofilm of methicillin-sensitive Staphylococcus aureus assessed as reduction of CFU
[3] = test system: Staphylococcus epidermidis; assay: Antimicrobial activity against catheter-associated biofilm of methicillin-resistant Staphylococcus epidermidis assessed as reduction of CFU
Klebsiella pneumoniae [4] = assay: Antimicrobial activity against catheter-associated biofilm of Klebsiella pneumoniae assessed as reduction of CFU
Acinetobacter baumannii = assay: Antimicrobial activity against catheter-associated biofilm of Acinetobacter baumannii assessed as reduction of CFU
Staphylococcus aureus [5] = assay: Antimicrobial activity against catheter-associated biofilm of methicillin-resistant Staphylococcus aureus
[6] = test system: Staphylococcus epidermidis; assay: Antimicrobial activity against catheter-associated biofilm of methicillin-resistant Staphylococcus epidermidis
Klebsiella pneumoniae [7] = assay: Antimicrobial activity against catheter-associated biofilm of Klebsiella pneumoniae

Measured: Activity

CN(C)c1cc(NC(=O)CNC(C)(C)C)c(O)c2c1C[C@H]1C[C@H]3[C@H](N(C)C)C(O)=C(C(N)=O)C(=O)[C@@]3(O)C(O)=C1C2=O
active: Staphylococcus aureus [1] | Staphylococcus aureus [2] | [3] | Klebsiella pneumoniae [4] | Acinetobacter baumannii

CC(=O)N[C@@H](CS)C(=O)O
active: Staphylococcus aureus [5] | [6] | Klebsiella pneumoniae [7]
